# Literature values as cited in US20060052382A1, “3-Amino-4-phenylbutanoic acid derivatives as dipeptidyl peptidase inhibitors for the treatment or prevention of diabetes” (priority 2002, published 2006).
# How the values were obtained:
# DP-IV = molecular target: T1, DP-IV (Homo sapiens, UniProt P27487); settings: plasma
# T1 construct: GRF is rapidly degraded in plasma to GRF[3-44]
# cardiac allograft = settings: rats; Transplantation, 63: 1495-1500 (1997)
# hematopoiesis = settings: mouse, cyclophosphamide-induced neutropenia; WO 99/56753
# T1 sequence (P27487 39-766 limits assumed): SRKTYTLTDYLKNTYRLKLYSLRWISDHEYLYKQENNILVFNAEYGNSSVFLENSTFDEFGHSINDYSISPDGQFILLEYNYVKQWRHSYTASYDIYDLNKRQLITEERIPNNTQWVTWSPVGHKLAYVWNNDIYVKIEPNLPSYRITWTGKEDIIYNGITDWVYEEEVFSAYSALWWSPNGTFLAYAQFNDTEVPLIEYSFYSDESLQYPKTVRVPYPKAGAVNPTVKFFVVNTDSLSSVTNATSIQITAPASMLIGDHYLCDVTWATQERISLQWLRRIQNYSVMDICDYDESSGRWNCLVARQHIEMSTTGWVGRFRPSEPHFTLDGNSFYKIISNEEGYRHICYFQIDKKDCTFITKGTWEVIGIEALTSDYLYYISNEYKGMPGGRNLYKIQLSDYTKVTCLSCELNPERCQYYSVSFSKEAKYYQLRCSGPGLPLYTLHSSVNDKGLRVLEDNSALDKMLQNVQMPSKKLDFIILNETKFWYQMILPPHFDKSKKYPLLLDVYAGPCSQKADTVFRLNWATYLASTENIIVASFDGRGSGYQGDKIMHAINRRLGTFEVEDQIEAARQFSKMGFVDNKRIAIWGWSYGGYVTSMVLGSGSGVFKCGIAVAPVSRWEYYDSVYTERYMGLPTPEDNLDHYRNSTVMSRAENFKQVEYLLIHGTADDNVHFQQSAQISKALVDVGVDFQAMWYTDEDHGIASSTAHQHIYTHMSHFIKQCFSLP
compound,measurement,setting,value
diprotin A,prevention of GRF degradation to GRF[3-44],DP-IV,prevented
"CC(C)N1CCC(c2ccccc2)(c2ccccc2)CC1 [Prodipine, Pro-Pro-diphenyl-phosphonate]",cardiac allograft survival,cardiac allograft,double cardiac allograft survival in rats from day 7 to day 14
CC(C)[C@H](N)C(=O)N1CCC[C@H]1B(O)O [Val-Boro-Pro],stimulation of hematopoiesis,hematopoiesis,stimulated hematopoiesis
